Results published in publication PMC7238241, “Lack of Correlation between In Vitro and In Vivo Studies on the Inhibitory Effects of (‒)-Sophoranone on CYP2C9 Is Attributable to Low Oral Absorption and Extensive Plasma Protein Binding of (‒)-Sophoranone” (Pharmaceutics, 2020).
Like-named read-outs stand apart in the source and are kept apart here. Each block holds one compound with its values, some of them ahead of it.

Legend:
[1] = Effects of SPN on the pharmacokinetics of diclofenac in rats; conditions: male, Sprague-Dawley, rat, plasma, po, 2 mg/kg, oral diclofenac 2 mg/kg, n = 6; for AUC(0-t): AUCt; for AUC(0-t) / AUC(0-inf) / Cmax / Tmax: rats; for Tmax: median (ranges); for half-life: t1/2, rats
Procedure: (§4) The carotid arteries of each rat were cannulated with a polyethylene tube (Clay Adams, Franklin Lakes, NJ, USA) for blood sampling. Each rat was individually housed in a rat metabolic cage and allowed to recover from anesthesia for 4–5 h prior to the start of the experiment. […] SPN was suspended in dimethylsulfoxide:PEG400:distilled water (5:60:35, v/v/v) and administered by oral gavage at a dose of 75 mg/kg in a volume of 5 mL/kg. […] The blood samples were immediately centrifuged at 13,000× g for 5 min at 4 °C. The plasma samples were divided into two Eppendorf tubes by 50 μL and stored at −80 °C until LC-MS/MS analysis.
(§5) Briefly, 50 μL aliquots of plasma were extracted with 300 μL aliquots of acetonitrile containing chlorpropamide (internal standard), followed by LC-MS/MS (Shimadzu Corporation). Chromatographic separation was performed on a Phenomenex Luna C18 column (100 × 2.00 mm; 3.0 μm). The isocratic mobile phase consisted of 0.1% formic acid in distilled water (A) and 0.1% formic acid in acetonitrile (B) (45:55, v/v), with a flow rate of 0.3 mL/min. […] The data acquisition was computed using LabSolutions LCMS Ver.5.6 (Shimadzu Corporation).
(§6) Pharmacokinetic parameters were calculated by a non-compartmental analysis using WinNonlin Professional software (version 5.2, Pharsight Corp., Mountain View, CA, USA) that used the total area under the plasma concentration–time curve from time zero to infinity (AUC∞) or the last measured time (AUCt). The logarithmic trapezoidal rule was used during the declining plasma level phase and the linear trapezoidal rule was used for the rising plasma-level phase. The peak plasma concentration (Cmax) and time to reach Cmax (Tmax) were read directly from the experimental data. Statistically significant differences were recognized at p < 0.05.

[2] = male, Sprague-Dawley, rat, in vivo, po, 2 mg/kg
Procedure: as §4, §5, §6

in vivo = conditions: male, Sprague-Dawley, rat, po, 2 mg/kg
Procedure: as §4, §5, §6

CYP2E1 = target: T1, CYP2E1 (Homo sapiens, UniProt P05181); experiment: Reversible CYP2E1 inhibition, cocktail assay (chlorzoxazone 6-hydroxylase) in human liver microsomes; format: biochemical
T1 construct: tissue Corning Life Sciences; host or cells: pooled human liver microsomes, 150 donors
Procedure: (§1) The inhibitory effects of SPN on CYP1A2, CYP2A6, CYP2B6, CYP2C8, CYP2C9, CYP2C19, CYP2D6, CYP2E1, and CYP3A4 were evaluated in pooled human liver microsomes through the use of specific CYP probe substrates (cocktail assay), as previously described with a slight modification. Concentrations of each CYP probe in Table 1 were used close to their reported Km values.
(§2) Briefly, a 90-µL incubation mixture, including pooled human liver microsomes (final concentration 0.1 mg/mL), 50 mM phosphate buffer (pH 7.4), each CYP-probe substrate cocktail set, and SPN (0–50 μM), was pre-incubated for 5 min at 37 °C. SPN was dissolved in methanol and spiked into the incubation mixture to a final concentration of 0.5% methanol. All P450-selective substrates (except coumarin due to solubility) were dissolved in methanol and serially diluted with methanol to the required concentrations, and the organic solvent was subsequently evaporated under a gentle stream of N2 gas to minimize the effects of organic solvents on CYP activities. On the other hand, coumarin dissolved in 50 mM phosphate buffer (pH 7.4) was directly added into the mixed tube. The reaction was initiated by adding 10-µL aliquot of NADPH-generating system (1.3 mM NADP^+, 3.3 mM glucose 6-phosphate, 3.3 mM MgCl2, and 0.4 unit/mL glucose-6-phosphate dehydrogenase) before 15 min incubation at 37 °C in a shaking water bath. […]
(§3) The IC50 values were calculated via nonlinear least-squares regression analysis from logarithmic plots of inhibitor concentration versus percentage of activity remaining after inhibition, using SigmaPlot (ver. 14.0; Systat Software Inc, Chicago, IL, USA). The Ki values were determined from the equations for a single substrate single inhibitor model and the software available in the SigmaPlot Enzyme Kinetics module. Competitive, non-competitive, uncompetitive, or mixed inhibition models were evaluated and ranked according to the best fit based on Akaike Information Criterion (AIC) values. […]

[3] = cited from earlier work
CYP2C8 = conditions: in humans; cited from earlier work
CYP1A2 = conditions: not in vivo because of high plasma protein binding; cited from earlier work
CYP2A6 = target: T2, CYP2A6 (Homo sapiens, UniProt P11509); experiment: Reversible CYP2A6 inhibition, cocktail assay (coumarin 7-hydroxylase) in human liver microsomes; format: biochemical
T2 construct: tissue Corning Life Sciences; host or cells: pooled human liver microsomes, 150 donors
T2 sequence (P11509 1-494): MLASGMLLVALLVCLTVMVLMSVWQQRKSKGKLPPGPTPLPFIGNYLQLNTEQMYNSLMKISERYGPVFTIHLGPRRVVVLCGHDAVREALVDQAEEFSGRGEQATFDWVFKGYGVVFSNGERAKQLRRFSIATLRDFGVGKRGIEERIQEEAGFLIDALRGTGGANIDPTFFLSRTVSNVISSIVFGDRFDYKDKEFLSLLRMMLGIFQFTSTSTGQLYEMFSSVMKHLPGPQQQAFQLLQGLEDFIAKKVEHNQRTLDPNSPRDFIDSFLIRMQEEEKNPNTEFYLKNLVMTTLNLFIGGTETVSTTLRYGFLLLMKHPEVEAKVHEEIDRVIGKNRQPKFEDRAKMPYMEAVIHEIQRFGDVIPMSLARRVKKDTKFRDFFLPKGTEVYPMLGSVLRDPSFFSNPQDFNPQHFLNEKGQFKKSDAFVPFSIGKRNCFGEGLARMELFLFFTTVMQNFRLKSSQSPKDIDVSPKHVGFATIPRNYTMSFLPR
Procedure: as §1, §2, §3

[4] = Bi-directional Caco-2 cell permeability; format: in vitro ADME; conditions: human, Caco-2; 10 μM, 2 h, n = 3
Procedure: Caco-2 cell permeability was assessed to predict the oral absorption of SPN. Cell culture and transport studies were performed as previously described. Briefly, for the bi-directional transport studies, the cells were seeded at a density of 1 × 10^5 cells/well, and the cell medium was replaced until they formed confluent monolayers. On the 25th day, the cell monolayers were washed with pre-warmed HBSS buffer. […] Before the experiment, the integrity of the cell monolayers was evaluated by measuring the transepithelial electrical resistance using a Millicell ohmmeter. After 2 h incubation at 37 °C, samples were withdrawn from both sides, respectively. All samples were stored at −80 °C until LC-MS/MS analysis, and all experiments were performed in triplicate.
The apparent permeability coefficient (Papp) was calculated using the following equation. Papp = (Vr/C0) × (1/A) × ([Drug]/t) where, Vr is the volume of medium in the receiver chamber, C0 is the donor compartment concentration at time zero, A is the area of the cell monolayer, t is the treatment time of the drug, and [Drug] is the drug concentration in the receiver chamber.

T1 sequence (P05181 whole entry): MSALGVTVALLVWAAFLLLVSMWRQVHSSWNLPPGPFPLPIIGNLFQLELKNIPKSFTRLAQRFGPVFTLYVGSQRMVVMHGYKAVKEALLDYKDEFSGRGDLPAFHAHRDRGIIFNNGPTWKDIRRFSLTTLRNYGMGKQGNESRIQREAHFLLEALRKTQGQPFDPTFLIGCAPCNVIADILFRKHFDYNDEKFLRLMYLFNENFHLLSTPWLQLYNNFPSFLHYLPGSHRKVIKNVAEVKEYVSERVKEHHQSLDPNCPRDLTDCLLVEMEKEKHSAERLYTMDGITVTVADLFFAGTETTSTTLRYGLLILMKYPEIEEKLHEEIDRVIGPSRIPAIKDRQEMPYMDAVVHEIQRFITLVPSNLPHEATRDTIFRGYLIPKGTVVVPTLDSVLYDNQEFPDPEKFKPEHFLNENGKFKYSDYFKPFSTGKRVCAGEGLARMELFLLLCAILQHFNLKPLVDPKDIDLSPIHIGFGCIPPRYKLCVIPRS

Compound: CC(C)(O)c1ccccc1CC[C@@H](SCC1(CC(=O)O)CC1)c1cccc(/C=C/c2ccc3ccc(Cl)cc3n2)c1 [Montelukast]
plasma protein binding ([3]; reference not given): > 99.7%
effect on the pharmacokinetics of the CYP2C8 substrates pioglitazone and rosiglitazone (CYP2C8): no effect

Compound: Cc1c(Cl)cccc1Nc1ccccc1C(=O)O [Tolfenamic acid]
plasma protein binding [3]: 99.7%
CYP1A2 inhibition in vitro (CYP1A2): strongly inhibited CYP1A2 in vitro

Compound: NCCc1c[nH]c2ccccc12 [Tryptamine, reference compound]
IC50 (CYP2A6): 2.98 ± 0.635 µM

Next, values leading:

AUC(0-t) ([1]; with oral SPN 75 mg/kg): 742 ng·h/mL
AUC(0-t) ([1]; without SPN): 747 ng·h/mL
AUC(0-inf) ([1]; with oral SPN 75 mg/kg): 1130 ng·h/mL
AUC(0-inf) ([1]; without SPN): 1140 ng·h/mL
Cmax ([1]; with oral SPN 75 mg/kg): 173 ± 40.8 ng/mL
Cmax ([1]; without SPN): 180 ± 55.2 ng/mL
Tmax ([1]; with oral SPN 75 mg/kg): 0.25 h
Tmax ([1]; without SPN): 0.167 h
half-life ([1]; with oral SPN 75 mg/kg): 4.93 ± 0.995 h
half-life ([1]; without SPN): 4.63 ± 1.17 h
Compound: O=C(O)Cc1ccccc1Nc1c(Cl)cc(O)cc1Cl [4′-hydroxydiclofenac]

AUCt [2]: 69.4 ± 2.98 µg·min/mL
AUC(0-t) (in vivo; AUCt): 1060 ng·h/mL
AUC(0-inf) (in vivo; AUC∞): 1200 ng·h/mL
Cmax (in vivo; Cmax): 882 ± 245 ng/mL
Tmax (in vivo; Tmax, median (ranges)): 5 min
half-life (in vivo; t1/2): 2.55 ± 1 h
Compound: O=C(O)Cc1ccccc1Nc1c(Cl)cccc1Cl [Diclofenac]

IC50 (CYP2E1): 12 ± 3.67 µM
Compound: CCN(CC)C(=S)S [Diethyldithiocarbamate, reference compound]

Papp B→A at 2 h, 10 µM [4]: 21.5 ± 2.19 ×10⁻⁶ cm/s
Compound: CC(C)NCC(O)COc1cccc2ccccc12 (centres unmarked) [propranolol, reference compound]
